Laboratory results from PubChem BioAssay (NCI).
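Where inhibition never reached the appropriate level, the endpoint shown equals the highest concentration tested. Otherwise, values were interpolated linearly from a five-concentration, 48-hour dose response in 96-well plates. The concentration for full growth arrest is given as TGI.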

Legend:
Assay in all cases: NCI-60 cell line screen, 48 h
[1] = system: SNB-75 CNS
[2] = system: SNB-19 CNS
[3] = system: SK-MEL-2 melanoma
[4] = system: MOLT-4 leukemia
[5] = system: UACC-257 melanoma
[6] = system: SF-295 CNS
[7] = system: U251 CNS
[8] = system: SW-620 colon
[9] = system: HCT-116 colon
[10] = system: BT-549 breast

Measured: TGI

COC(=O)CN(CC1O[C@@H]2OC(C)(C)O[C@@H]2C1NC(C)=O)C(=O)OCc1ccccc1 (stereo not given in full)
> 100 µM: [1] | [2] | [3] | [4] | [5] | [6] | [7] | [8] | [9] | [10]
